Test results: ChEMBL document CHEMBL3286220, “2,4-Bis(4-hydroxybenzyl)phenol inhibits heat shock transcription factor 1 and sensitizes lung cancer cells to conventional anticancer modalities” (J Nat Prod, 2014)
Changes are numbered by the printed parent chain. Calls of active or inactive are those of the source. No cut-off for these calls is given here.

Key:
[1] = biological target: T1, Heat shock factor protein 1 (Homo sapiens) (UniProt Q00613); test: Reduction of HSP1 stability in human NCI-H460 cells assessed as protein degradation at 10 ug/mL up to 9 hrs by Western blot analysis; assay type: cell-based
T1 sequence (whole entry): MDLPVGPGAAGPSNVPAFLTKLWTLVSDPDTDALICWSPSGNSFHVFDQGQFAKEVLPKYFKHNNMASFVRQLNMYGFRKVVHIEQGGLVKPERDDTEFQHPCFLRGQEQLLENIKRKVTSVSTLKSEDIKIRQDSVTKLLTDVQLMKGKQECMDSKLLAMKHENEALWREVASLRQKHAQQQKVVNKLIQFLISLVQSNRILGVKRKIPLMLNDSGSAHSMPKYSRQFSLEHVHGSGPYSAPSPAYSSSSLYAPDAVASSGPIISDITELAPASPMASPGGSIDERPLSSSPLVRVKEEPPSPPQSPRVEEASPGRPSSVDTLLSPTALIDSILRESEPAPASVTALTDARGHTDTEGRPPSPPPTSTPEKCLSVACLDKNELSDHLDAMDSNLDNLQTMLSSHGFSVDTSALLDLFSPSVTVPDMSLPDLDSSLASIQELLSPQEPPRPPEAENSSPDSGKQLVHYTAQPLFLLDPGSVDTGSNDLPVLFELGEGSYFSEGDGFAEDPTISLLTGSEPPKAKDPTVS

[2] = biological target: T1, Heat shock factor protein 1 (Homo sapiens); test: Inhibition of HSP1 activity in human NCI-H460 cells assessed as reduction of hsp25 promoter activity after 12 hrs by luciferase reporter gene assay; assay type: cell-based
[3] = biological target: T1, Heat shock factor protein 1 (Homo sapiens); test: Inhibition of HSP1 activity in human NCI-H460 cells assessed as reduction of hsp70 promoter activity after 12 hrs by luciferase reporter gene assay; assay type: cell-based
[4] = biological target: T2, Heat shock factor protein 1 (Mus musculus) (UniProt P38532); test: Inhibition of HSP1 activity in mouse MEF assessed as reduction of hsp25 promoter activity at 5 to 100 uM after 12 hrs by luciferase reporter gene assay
T2 sequence (whole entry): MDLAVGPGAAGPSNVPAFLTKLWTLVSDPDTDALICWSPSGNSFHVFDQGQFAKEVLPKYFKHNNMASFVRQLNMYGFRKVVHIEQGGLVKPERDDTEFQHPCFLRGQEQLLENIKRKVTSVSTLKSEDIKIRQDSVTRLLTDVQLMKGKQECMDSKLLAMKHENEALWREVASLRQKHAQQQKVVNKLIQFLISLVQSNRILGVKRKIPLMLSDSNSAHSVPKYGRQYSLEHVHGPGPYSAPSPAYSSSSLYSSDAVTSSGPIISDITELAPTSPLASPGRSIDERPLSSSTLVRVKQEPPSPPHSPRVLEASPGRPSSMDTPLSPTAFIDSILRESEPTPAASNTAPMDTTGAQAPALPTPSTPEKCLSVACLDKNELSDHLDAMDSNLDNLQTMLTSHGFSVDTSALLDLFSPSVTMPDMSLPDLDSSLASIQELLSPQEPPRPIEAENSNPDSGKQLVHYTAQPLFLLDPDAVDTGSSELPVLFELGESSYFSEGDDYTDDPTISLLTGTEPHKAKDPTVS

[5] = biological target: T2, Heat shock factor protein 1 (Mus musculus); test: Inhibition of HSP1 activity in mouse MEF assessed as reduction of hsp70 promoter activity at 5 to 100 uM after 12 hrs by luciferase reporter gene assay
[6] = biological target: T1, Heat shock factor protein 1 (Homo sapiens); test: Inhibition of HSP1 activity in human NCI-H460 cells assessed as reduction of HSP27 mRNA expression at 1 to 20 uM after 12 hrs by qRT-PCR analysis; assay type: cell-based
[7] = biological target: T1, Heat shock factor protein 1 (Homo sapiens); test: Inhibition of HSP1 activity in human NCI-H460 cells assessed as reduction of HSP70 mRNA expression at 1 to 20 uM after 12 hrs by qRT-PCR analysis; assay type: cell-based
[8] = biological target: T1, Heat shock factor protein 1 (Homo sapiens); test: Inhibition of HSP1 activity in human NCI-H460 cells assessed as reduction of HSP1 mRNA expression at 1 to 20 uM after 12 hrs by qRT-PCR analysis; assay type: cell-based
[9] = biological target: T1, Heat shock factor protein 1 (Homo sapiens); test: Inhibition of HSP1 activity in human NCI-H460 cells assessed as reduction of HSP27 mRNA expression at 20 uM up to 24 hrs by qRT-PCR analysis; assay type: cell-based
[10] = biological target: T1, Heat shock factor protein 1 (Homo sapiens); test: Inhibition of HSP1 activity in human NCI-H460 cells assessed as reduction of HSP70 mRNA expression at 20 uM up to 24 hrs by qRT-PCR analysis; assay type: cell-based
[11] = biological target: T1, Heat shock factor protein 1 (Homo sapiens); test: Inhibition of HSP1 activity in human NCI-H460 cells assessed as reduction of HSP1 mRNA expression at 20 uM up to 24 hrs by qRT-PCR analysis; assay type: cell-based
[12] = biological target: T1, Heat shock factor protein 1 (Homo sapiens); test: Inhibition of HSP1 activity in human NCI-H460 cells assessed as reduction of HSP25 protein expression after 12 hrs by Western blot analysis; assay type: cell-based
[13] = biological target: T1, Heat shock factor protein 1 (Homo sapiens); test: Inhibition of HSP1 activity in human NCI-H460 cells assessed as reduction of HSP70 protein expression after 12 hrs by Western blot analysis; assay type: cell-based
[14] = biological target: T1, Heat shock factor protein 1 (Homo sapiens); test: Inhibition of HSP1 activity in human NCI-H460 cells assessed as reduction of HSP1 protein expression after 12 hrs by Western blot analysis; assay type: cell-based
[15] = biological target: T1, Heat shock factor protein 1 (Homo sapiens); test: Inhibition of HSP1 activity in human NCI-H460 cells assessed as reduction of HSP25 protein expression at 20 uM by Western blot analysis; assay type: cell-based; conditions: TDE = time-dependent effect
[16] = biological target: T1, Heat shock factor protein 1 (Homo sapiens); test: Inhibition of HSP1 activity in human NCI-H460 cells assessed as reduction of HSP70 protein expression at 20 uM by Western blot analysis; assay type: cell-based; conditions: TDE = time-dependent effect
[17] = biological target: T1, Heat shock factor protein 1 (Homo sapiens); test: Inhibition of HSP1 activity in human NCI-H460 cells assessed as reduction of HSP1 protein expression at 20 uM by Western blot analysis; assay type: cell-based; conditions: TDE = time-dependent effect
[18] = biological target: T1, Heat shock factor protein 1 (Homo sapiens); test: Reduction of HSP1 stability in human NCI-H460 cells assessed as protein degradation at 10 uM up to 9 hrs by Western blot analysis in presence of cyclohexamide; assay type: cell-based
[19] = biological target: T1, Heat shock factor protein 1 (Homo sapiens); test: Induction of HSP1 dephosphorylation at S230, S303/307, and S326 in human NCI-H460 cells after 24 hrs by Western blot analysis; assay type: cell-based
[20] = test system: T3, Heat shock factor protein 1 (Homo sapiens), Q00613 [S326E]; test: Reduction of HSP1 phosphorylated at S326E mutant stability in human NCI-H460 cells up to 7.5 hrs by Western blot analysis in presence of cyclohexamide; assay type: cell-based
T3 sequence (whole entry): T1 sequence (whole entry) with S326E

[21] = test system: T4, Heat shock factor protein 1 (Homo sapiens), Q00613 [S326A]; test: Reduction of HSP1 dephosphorylated at S326A mutant stability in human NCI-H460 cells up to 7.5 hrs by Western blot analysis in presence of cyclohexamide; assay type: cell-based
T4 sequence (whole entry): T1 sequence (whole entry) with S326A

[22] = test system: NCI-H460; test: Cytotoxicity against human NCI-H460 cells up to 100 uM after 24 hrs by MTT assay; assay type: functional, cell-based
[23] = test system: NCI-H460; test: Induction of apoptosis in human NCI-H460 cells assessed as cleaved PARP and caspase 3 level after 12 hrs; assay type: functional, cell-based
[24] = test system: NCI-H460; test: Induction of apoptosis in human NCI-H460 cells assessed as cleaved PARP and caspase 3 level at 20 uM; assay type: functional, cell-based; conditions: TDE = time-dependent effect
[25] = test system: NCI-H460; test: Induction of apoptosis in human NCI-H460 cells assessed as cyclin D and cyclin E level after 12 hrs; assay type: functional, cell-based
[26] = test system: NCI-H460; test: Induction of apoptosis in human NCI-H460 cells assessed as cyclin D and cyclin E level at 20 uM; assay type: functional, cell-based; conditions: TDE = time-dependent effect
[27] = test system: NCI-H460; test: Cytotoxicity against human NCI-H460 cells expressing siHSF1 up to 100 uM after 24 hrs by MTT assay; assay type: functional, cell-based
[28] = test system: NCI-H460; test: Induction of apoptosis in human NCI-H460 cells expressing siHSF1 assessed as cleaved PARP and caspase 3 level up to 20 uM after 12 hrs; assay type: functional, cell-based
[29] = test system: NCI-H460; test: Cytotoxicity against HSF1 deficient human NCI-H460 cells up to 100 uM after 24 hrs by MTT assay; assay type: functional, cell-based

## C[C@@H]1C[C@@H]([C@H](O)CC2CC(=O)NC(=O)C2)C(=O)[C@@H](C)C1
[1]
  Activity: Active

## Oc1ccc(Cc2ccc(O)c(Cc3ccc(O)cc3)c2)cc1
[2]
  inhibition: Dose-dependent effect
[3]
  inhibition: Dose-dependent effect
[4]
  inhibition: inactive
[5]
  inhibition: inactive
[6]
  inhibition: Active
[7]
  inhibition: Active
[8]
  inhibition: inactive
[9]
  inhibition: Active
[10]
  inhibition: Active
[11]
  inhibition: inactive
[12]
  inhibition: Dose-dependent effect
[13]
  inhibition: Dose-dependent effect
[14]
  inhibition: Dose-dependent effect
[15]
  inhibition: tde
[16]
  inhibition: tde
[17]
  inhibition: tde
[18]
  Activity: Active
[19]
  Activity: Dose-dependent effect
[20]
  Activity: Active
[21]
  Activity: Active
[22]
  Activity: Active
[23]
  Activity: Dose-dependent effect
[24]
  Activity: tde
[25]
  Activity: Dose-dependent effect
[26]
  Activity: tde
[27]
  Activity: inactive
[28]
  Activity: Active
[29]
  Activity: Active
